For one data set, the target named is AT-III (Homo sapiens, UniProt P01008). In words: BLI binding assay, sugars immobilized, protein as analyte. As for the experimental part: (§1) We evaluated the binding affinity of native HS and synthetic HS glycomimetics (M1, D1, D2, D3, and T1) to these proteins using biolayer interferometry (BLI). The terminal amino groups of the sugars were immobilized onto the sensor surface using standard amine coupling chemistry, and binding assays were performed by introducing the proteins as analytes at varying concentrations (Figure A). The equilibrium dissociation constants (K D) were determined using the steady-state affinity curve fitting.
AT-III, sequence (P01008 33-464): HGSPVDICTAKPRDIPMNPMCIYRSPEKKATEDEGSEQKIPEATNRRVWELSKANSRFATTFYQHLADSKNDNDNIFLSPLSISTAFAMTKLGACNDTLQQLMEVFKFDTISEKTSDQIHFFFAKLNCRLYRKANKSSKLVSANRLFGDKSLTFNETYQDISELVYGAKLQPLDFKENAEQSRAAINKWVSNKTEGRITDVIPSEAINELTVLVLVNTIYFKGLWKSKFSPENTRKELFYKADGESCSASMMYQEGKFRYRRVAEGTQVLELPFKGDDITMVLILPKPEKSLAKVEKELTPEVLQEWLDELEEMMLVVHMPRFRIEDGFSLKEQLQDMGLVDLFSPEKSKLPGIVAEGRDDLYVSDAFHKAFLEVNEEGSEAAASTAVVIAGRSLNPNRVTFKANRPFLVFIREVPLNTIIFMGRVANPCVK
(In general: BLI is a label-free optical method that tracks binding on a fibre tip over time.)

For data set [1], the target named is T1, FGF-1 (Homo sapiens, UniProt P05230). The description is as above. Conditions: steady-state affinity curve fitting. On the procedure:
as §1

Data set [2] has as its target T2, FGF-2 (Homo sapiens, UniProt P09038). The data set is described as above. Conditions: steady-state affinity curve fitting. As for the experimental part: as §1
In another data set the target is NGF (Homo sapiens, UniProt P01138). The data set is described as above. Conditions: steady-state affinity curve fitting. As for the experimental part:
as §1

In data set [3] the target is T2, FGF-2. The data set can be described thus: BLI competition assay with immobilized native HS for FGF-2 binding. From the text:
We next examined the functional relevance of the synthetic HS glycomimetics by testing their ability to compete with native HS for FGF-2 binding using competition assays. Although direct binding assays measure the intrinsic affinity of HS glycomimetics for FGF-2, they are limited in representing the complex, multimolecular environment of biological systems. In vivo, FGF-2 activity is tightly regulated by its interactions with GAGs, which are abundant on cell surfaces and in the ECM. These interactions stabilize FGF-2 and facilitate its dimerization with FGF receptors (FGFRs), a requirement for effective signal transduction. , Thus, therapeutic candidates targeting FGF-2 must be evaluated not only for direct binding but also for their ability to modulate or disrupt GAG-mediated interactions. Therefore, we performed competition assays in which native HS was immobilized on the sensor surface. Solutions containing a fixed concentration of FGF-2 (50 nM) were premixed with varying concentrations of HS glycomimetics, functioning as inhibitors in this context, (M1, D1, D2, D3, and T1) and also with the heparin hexasaccharide (H1) (GlcNS6S-GlcA-GlcNS3S6S-IdoA2S-GlcNS6S-GlcA), a well-studied HS glycomimetic in the literature, as a positive control (Figure B). […] The progressive decrease in signal intensity with increasing inhibitor concentration directly reflects competition with immobilized HS for FGF-2 binding.

For data set [4], the target named is T1, FGF-1. In words: Far-UV CD spectroscopy and CD thermal denaturation. The following applies: CD thermal denaturation 10–90 °C; protein with sugar, 1:3 molar ratio. From the text:
(§2) To select a lead compound, we complemented the affinity data with a series of studies evaluating the structural and functional implications of protein-HS glycomimetic interactions. We assessed the therapeutic safety profile of our HS glycomimetics. We also employed circular dichroism (CD) spectroscopy to assess secondary structural changes in protein conformation upon binding to native HS and HS glycomimetics. Since native HS alone produces only a minimal signal, it was ensured that its contribution would not interfere with protein-sugar complex spectra. Therefore, only the far-UV CD spectra of bare proteins and their sugar complexes were recorded. […] Upon incubation with sugars (1:3 molar ratio), significant spectral changes were observed, indicating sugar-induced alterations in secondary structure (Figure A).
(§3) We also evaluated the thermal stability of the proteins and their sugar complexes by CD-based thermal denaturation experiments. The spectra were recorded across a temperature range of 10–90 °C (Figure B). For all proteins except AT-III, the unfolding profiles were analyzed to determine the melting temperature (T m), representing the midpoint of the transition from the folded to the unfolded state, an indicator of structural integrity and resistance to thermal denaturation. The calculated values are compiled in Table .

The target of data set [5] is T2, FGF-2. The data set can be described thus: Far-UV CD spectroscopy and CD thermal denaturation. Conditions: CD thermal denaturation 10–90 °C; protein with sugar, 1:3 molar ratio.
Excerpt: as §2, §3

Data set [6] has as its system citrated pooled rat plasma. The data set can be described thus: Activated partial thromboplastin time (aPTT) assay. From the text: To complement these findings, we performed an activated partial thromboplastin time (aPTT) assay in citrated pooled rat plasma to assess the overall impact of the compounds on the intrinsic coagulation pathway. This global clotting assay measures the time required for fibrin formation and is sensitive to anticoagulant effects. Figure F,G compare the effects of UFH, heparan sulfate, Fondaparinux, and the synthetic glycomimetics when supplemented into citrated plasma. […] As expected, UFH produced a strong, concentration-dependent anticoagulant response, prolonging the mean clotting time to 271 s at the highest concentration tested, while heparan sulfate and Fondaparinux induced weaker but measurable effects (83 and 37 s, respectively). […] The results further confirm that selective sulfation patterns can decouple GF recognition from anticoagulant function, an essential prerequisite for their translational application in regenerative medicine. […] These interactions are in line with nonspecific electrostatic binding, a feature of highly sulfated oligosaccharides known to engage different proteins via charge-based, rather than specific, biologically targeted interactions. Thus, to avoid potential off-target effects associated with highly sulfated analogues, we selected the disaccharide D2 for subsequent biological experiments.

The subject of another data set is PC12 cells. The data set can be described thus: NGF-mediated neurite outgrowth on sugar-coated substrates. The class given is cell-based, rat. Conditions: PC12 cells on coated surface, NGF 50 ng/mL; control 108 μm. From the text: We next examined the NGF-induced neuritogenic potential of the HS glycomimetics to determine whether they could potentiate neurotrophin-driven neuronal differentiation. To mimic the native role of HS proteoglycans in the ECM, which spatially sequester and present growth factors, we immobilized D2 and also native HS as a positive control onto culture substrates and evaluated its capacity to modulate neural maturation in two well-established neuronal cell models of different species origins, rat-derived PC12 cells and human-derived SH-SY5Y cells. These models represent distinct stages of neuronal differentiation and maturation, and the choice enabled us to compare cellular responses across species, thereby enhancing the translational relevance of our findings. PC12 cells respond to NGF by exiting the cell cycle and extending neurites, while SH-SY5Y cells serve as a model for later-stage maturation and neurite elongation. , […]
In PC12 cells, which serve as a classical model for NGF-induced neuronal differentiation, the presence of both immobilized D2 and native HS coatings led to notable morphological changes relative to control conditions (Figure C). […] Although images used for quantification were selected from well-dispersed regions, we also observed instances of cell clustering in both control and D2 groups (Figure S6.1, Supporting Information). […]

For a further data set, the system named is SH-SY5Y cells. In words: NGF-mediated neuronal maturation on sugar-coated substrates, β-tubulin III fluorescence. The format is cell-based, human. Conditions: SH-SY5Y cells on coated surface, NGF 50 ng/mL; control 1.43. From the text:
We next examined the NGF-induced neuritogenic potential of the HS glycomimetics to determine whether they could potentiate neurotrophin-driven neuronal differentiation. To mimic the native role of HS proteoglycans in the ECM, which spatially sequester and present growth factors, we immobilized D2 and also native HS as a positive control onto culture substrates and evaluated its capacity to modulate neural maturation in two well-established neuronal cell models of different species origins, rat-derived PC12 cells and human-derived SH-SY5Y cells. These models represent distinct stages of neuronal differentiation and maturation, and the choice enabled us to compare cellular responses across species, thereby enhancing the translational relevance of our findings. PC12 cells respond to NGF by exiting the cell cycle and extending neurites, while SH-SY5Y cells serve as a model for later-stage maturation and neurite elongation. ,
In this context, the immobilization of D2 onto culture substrates provided a means to investigate how its presentation as an ECM-like component influences neurotrophic responses, particularly in combination with NGF. In both cell lines, D2 and native HS were applied to the substrate prior to seeding, thereby mimicking its natural role as a structural component of the ECM. […]

Data set [7] has as its system rat dissociated hippocampal neurons. In words: Neurite morphometry in dissociated hippocampal neurons. The class given is cell-based. Conditions: 24 h treatment, 1 day in vitro, D2 1 μM, FGF-2 40 ng/mL, mean ± SEM. On the procedure: In the pursuit of this, we used rat dissociated hippocampal neurons as an in vitro model system. We assessed the impact of HS glycomimetics on neuronal morphology, using immunofluorescence imaging and quantitative morphometric analysis, and on synaptic functionality through electrophysiological monitoring of spontaneous neuronal activity.
During the first day of differentiation in vitro (Table S7.1 in SI), neurons were treated for 24 h with either control medium, glycomimetic D2 (1 μM), FGF-2 (40 ng/mL) alone, or a combination of FGF-2 and D2 (40 ng/mL and 1 μM, respectively). After treatments, cultures were fixed and immuno-labeled with antibodies against the neuronal marker β-Tubulin III to study cell morphology. […] Quantitative analysis further corroborated these observations (Figure B–C).

Where “and” joins values, the source holds several entries; their conditions need not be identical. Equal values may be shown once. Read-outs that look alike come from different tables or passages of the source.

T1 sequence (P05230 whole entry, species assumed): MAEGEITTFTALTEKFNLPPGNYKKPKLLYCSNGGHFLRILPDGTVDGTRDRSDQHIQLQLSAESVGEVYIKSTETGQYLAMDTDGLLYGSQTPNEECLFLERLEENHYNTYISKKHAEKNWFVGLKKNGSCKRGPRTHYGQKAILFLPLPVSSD
T2 sequence (P09038 134-288 limits assumed, species assumed): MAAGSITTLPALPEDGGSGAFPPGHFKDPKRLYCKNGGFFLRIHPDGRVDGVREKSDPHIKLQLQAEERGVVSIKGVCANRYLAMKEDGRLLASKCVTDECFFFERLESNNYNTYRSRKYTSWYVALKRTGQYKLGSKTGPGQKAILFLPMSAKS
NGF, sequence (P01138 122-241): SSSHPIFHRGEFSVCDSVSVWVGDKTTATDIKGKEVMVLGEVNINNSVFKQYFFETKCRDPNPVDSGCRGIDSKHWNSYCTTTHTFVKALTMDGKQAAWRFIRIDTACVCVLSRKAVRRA

`CC(=O)N[C@H]1[C@@H](OCCN)O[C@H](COS(=O)(=O)O)[C@@H](O[C@@H]2O[C@@H](C(=O)O)[C@@H](OS(=O)(=O)O)[C@H](O)[C@H]2OS(=O)(=O)O)[C@@H]1O` [D2, IdoA2S4S-GlcNAc6S]: at AT-III, the “binding to AT-III” value is “no measurable binding”. Moreover, the Kd at FGF-1 [1] turned out to be 0.78 µM; at FGF-2 [2], 0.67 µM; on NGF (read-out: KD for NGF, two-site binding model, first value), 2.6 µM; at NGF (read-out: KD for NGF, two-site binding model, second value) it was 468 µM. Besides, the “competition with immobilized native HS for FGF-2 binding, signal intensity” value on FGF-2 [3] (FGF-2 50 nM premixed with varying concentrations) is “dose-dependent reduction in signal intensity”. For the same compound, the IC50 at FGF-2 [3] (FGF-2 50 nM, fixed association time t = 240 s, read-out: Apparent IC50(t), competition with immobilized native HS for FGF-2 binding) worked out at 17.9 µM. Further, the “FGF-1 Sample Tm” value at FGF-1 [4] is 45.0 °C and 45.0 ± 0.4 °C. The “FGF-2 Sample Tm” value at FGF-2 [5] was 52.4 °C and 52.4 ± 1.2 °C. The “aPTT mean clotting time” value in data set [6] (citrated pooled rat plasma, highest concentration tested, control 22 s) is reported as 24 s. Besides, in [6] (conclusion from aPTT and chromogenic assays), the anticoagulant activity result is recorded as “without any anticoagulant activity”. Moreover, in the data set with PC12 cells, the “total neurite outgrowth per image (average sum of neurite length)” value is recorded as 541 μm. Moreover, the “mean normalized β-tubulin III fluorescence intensity” value with SH-SY5Y cells worked out at 2.15. Moreover, in data set [7] (control 3.6 ± 0.22), the “number of neurites emerging from the cell body” value was found to be 3.8 ± 0.23 neurites per neuron. Further, in [7] (control 38 ± 2), the “length of the longest neurite” value was 43 ± 3 μm.

For orientation: Kd means the equilibrium constant for the complex coming apart. In general, IC50 refers to the concentration needed to halve the response being measured.

The record behind these values is publication PMC12715788, “Unraveling the Potential of Small Molecule Heparin Glycomimetics in Neuroregenerative Therapeutics” (Journal of the American Chemical Society, 2025).
